Structures are written as SMILES. The source made the active and inactive calls. The calls are words filed in the database; no cut-off is given here.

Data set [1] concerns the target T1, Beta-secretase 1 (Homo sapiens, UniProt P56817). The experiment in a line: Inhibition of BACE1 in human KBV1 cells expressing APP 751 Swedish mutant assessed as inhibition of amyloid beta (1 to 40) production after overnight incubation by ELISA in absence of tariquidar. The data set is classed as cell-based. (In an ELISA, binding on a coated surface is turned into a signal by an enzyme label.)

Data set [2] addresses T1, Beta-secretase 1. The experiment in a line: Displacement of [3H]BMS-599240 from BACE1 expressed in HEK293 cells. The data set is classed as cell-based. On the technique in general: In a radioligand displacement assay an active substance lowers the binding of a labelled ligand.
Data set [3] has as its target T1, Beta-secretase 1. The experiment in a line: Inhibition of BACE1 in human HEK293 cells expressing APP 695 Swedish mutant assessed as inhibition of amyloid beta (1 to 40) production after overnight incubation by ELISA. The data set is classed as cell-based.
Data set [4] has as its target T1, Beta-secretase 1. Put plainly: Inhibition of BACE1 in human KBV1 cells expressing APP 751 Swedish mutant assessed as inhibition of amyloid beta (1 to 40) production after overnight incubation by ELISA in presence of tariquidar. The data set is classed as cell-based.
For data set [5], the target named is T1, Beta-secretase 1. Put plainly: Ratio of IC50 for BACE1 in human KBV1 cells expressing APP 751 Swedish mutant in absence of tariquidar to IC50 for BACE1 in human KBV1 cells expressing APP 751 Swedish mutant in presence of tariquidar. The data set is classed as cell-based.
The subject of data set [6] is Rattus norvegicus. The experiment in a line: Antialzheimer activity in rat assessed as amyloid beta (1 to 40) level in brain at 5 mg/kg, sc measured after 5 hrs by ELISA relative to control. The conditions noted are these: route subcutaneous. The data set is classed as functional.
Data set [7] can be described thus: Plasma concentration in rat at 5 mg/kg, sc measured after 5 hrs by LC/MS/MS analysis. The data set is classed as ADME, organism-based. Details: dose 5 mg/kg, route subcutaneous.
A short description of data set [8]: Plasma concentration in rat at 40 mg/kg, sc preadministered with ABT measured after 5 hrs by LC/MS/MS analysis. The data set is classed as ADME, organism-based. Details: dose 40 mg/kg, route subcutaneous.
A short description of data set [9]: Drug uptake in rat brain at 40 mg/kg, sc preadministered with ABT measured after 5 hrs by LC/MS/MS analysis. The data set is classed as ADME, organism-based. Details: dose 40 mg/kg, route subcutaneous. The conditions noted are these: read-out: Drug uptake.
In data set [10] the test system is Rattus norvegicus. The experiment in a line: Antialzheimer activity in sc dosed rat assessed as reduction in amyloid beta (1 to 40) level in plasma measured after 5 hrs by ELISA relative to control. The data set is classed as functional, organism-based.
Data set [11] addresses T2, Cathepsin E (Homo sapiens) (UniProt P14091).
T2 sequence (whole entry): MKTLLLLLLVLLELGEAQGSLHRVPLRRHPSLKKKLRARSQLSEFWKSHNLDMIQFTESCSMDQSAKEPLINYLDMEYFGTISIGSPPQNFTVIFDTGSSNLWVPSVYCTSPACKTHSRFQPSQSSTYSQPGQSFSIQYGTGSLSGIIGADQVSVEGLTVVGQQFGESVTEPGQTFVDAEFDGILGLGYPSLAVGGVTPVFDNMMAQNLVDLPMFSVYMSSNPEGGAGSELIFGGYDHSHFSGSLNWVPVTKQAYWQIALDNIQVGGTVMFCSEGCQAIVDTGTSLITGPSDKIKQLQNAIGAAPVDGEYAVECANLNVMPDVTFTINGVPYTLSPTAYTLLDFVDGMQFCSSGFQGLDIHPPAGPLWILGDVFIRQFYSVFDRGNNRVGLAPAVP
Put plainly: Inhibition of cathepsin E by radioligand binding assay.

Data set [12] can be described thus: Drug uptake in rat brain at 5 mg/kg, sc measured after 5 hrs by LC/MS/MS analysis. The data set is classed as ADME, organism-based. More on the design: dose 5 mg/kg, route subcutaneous. The note with it: read-out: Drug uptake.
The target in data set [13] is Voltage-gated inwardly rectifying potassium channel KCNH2 (Homo sapiens, UniProt Q12809). The experiment in a line: Activity at human ERG channel by fluorescence-based thallium flux assay.
The test system of data set [14] is Rattus norvegicus. The experiment in a line: Antialzheimer activity in rat assessed as amyloid beta (1 to 40) level in plasma at 40 mg/kg, sc preadministered with ABT measured after 5 hrs by ELISA relative to control. The data set is classed as functional. The conditions noted are these: route subcutaneous.
The test system of data set [15] is Rattus norvegicus. The experiment in a line: Antialzheimer activity in rat assessed as amyloid beta (1 to 40) level in plasma at 15 mg/kg, sc measured after 5 hrs by ELISA relative to control. The data set is classed as functional. The note with it: route subcutaneous.
Data set [16] in a line: Drug uptake in rat brain at 15 mg/kg, sc after 5 hrs by LC/MS/MS analysis. More on the design: dose 15 mg/kg, route subcutaneous. The data set is classed as ADME, organism-based. The note with it: read-out: Drug uptake.
The nature of data set [17]: Inhibition of pepsin by radioligand binding assay.
Data set [18] concerns the target T1, Beta-secretase 1. Put plainly: Ratio of IC50 for BACE1 in HEK293 cells expressing APP 695 Swedish mutant to Ki for BACE1. The data set is classed as cell-based.
In data set [19] the test system is Rattus norvegicus. The experiment in a line: Antialzheimer activity in rat assessed as amyloid beta (1 to 40) level in CSF at 15 mg/kg, sc measured after 5 hrs by ELISA relative to control. The data set is classed as functional. The conditions noted are these: route subcutaneous.
The target of data set [20] is Cathepsin D (Homo sapiens) (UniProt P07339). The experiment in a line: Inhibition of cathepsin D by radioligand binding assay.
The test system of data set [21] is Rattus norvegicus. The experiment in a line: Antialzheimer activity in rat assessed as amyloid beta (1 to 40) level in CSF at 5 mg/kg, sc measured after 5 hrs by ELISA relative to control. The data set is classed as functional. The conditions noted are these: route subcutaneous.
For data set [22], the system named is Rattus norvegicus. The experiment in a line: Antialzheimer activity in rat assessed as amyloid beta (1 to 40) level in brain at 15 mg/kg, sc measured after 5 hrs by ELISA relative to control. The data set is classed as functional. The conditions noted are these: route subcutaneous.
Data set [23] relates to Rattus norvegicus. Put plainly: Antialzheimer activity in rat assessed as amyloid beta (1 to 40) level in plasma at 5 mg/kg, sc measured after 5 hrs by ELISA relative to control. The data set is classed as functional. The note with it: route subcutaneous.
For data set [24], the system named is Rattus norvegicus. Put plainly: Antialzheimer activity in rat assessed as amyloid beta (1 to 40) level in brain at 40 mg/kg, sc preadministered with ABT measured after 5 hrs by ELISA relative to control. The data set is classed as functional. The note with it: route subcutaneous.
The nature of data set [25]: Drug uptake in rat CSF at 15 mg/kg, sc after 5 hrs by LC/MS/MS analysis. The data set is classed as ADME, organism-based, Cerebrospinal fluid. More on the design: dose 15 mg/kg, route subcutaneous. The note with it: read-out: Drug uptake.
Data set [26] in a line: Drug uptake in rat CSF at 40 mg/kg, sc preadministered with ABT measured after 5 hrs by LC/MS/MS analysis. The conditions noted are these: read-out: Drug uptake. The data set is classed as ADME, organism-based, Cerebrospinal fluid. More on the design: dose 40 mg/kg, route subcutaneous.
The nature of data set [27]: Plasma concentration in rat at 15 mg/kg, sc after 5 hrs by LC/MS/MS analysis. The data set is classed as ADME, organism-based. Details: dose 15 mg/kg, route subcutaneous.
Data set [28] relates to Rattus norvegicus. The experiment in a line: Antialzheimer activity in rat assessed as amyloid beta (1 to 40) level in CSF at 40 mg/kg, sc preadministered with ABT measured after 5 hrs by ELISA relative to control. The data set is classed as functional. The conditions noted are these: route subcutaneous.
A short description of data set [29]: Drug uptake in rat CSF at 5 mg/kg, sc measured after 5 hrs by LC/MS/MS analysis. The data set is classed as ADME, organism-based, Cerebrospinal fluid. More on the design: dose 5 mg/kg, route subcutaneous. The note with it: read-out: Drug uptake.

T1 sequence (P56817 whole entry): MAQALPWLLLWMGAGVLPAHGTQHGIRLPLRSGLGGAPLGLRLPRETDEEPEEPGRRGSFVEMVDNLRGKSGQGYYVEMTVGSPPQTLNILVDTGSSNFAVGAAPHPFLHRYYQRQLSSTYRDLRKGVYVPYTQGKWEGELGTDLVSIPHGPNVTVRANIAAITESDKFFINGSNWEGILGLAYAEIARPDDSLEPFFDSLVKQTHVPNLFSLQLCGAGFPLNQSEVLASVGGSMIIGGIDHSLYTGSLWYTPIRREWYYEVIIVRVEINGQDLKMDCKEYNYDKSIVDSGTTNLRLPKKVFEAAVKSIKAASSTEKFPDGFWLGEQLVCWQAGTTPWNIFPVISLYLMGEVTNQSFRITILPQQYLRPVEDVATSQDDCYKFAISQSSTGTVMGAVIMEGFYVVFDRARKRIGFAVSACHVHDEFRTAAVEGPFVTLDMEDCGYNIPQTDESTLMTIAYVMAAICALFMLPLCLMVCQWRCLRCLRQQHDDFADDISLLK
Voltage-gated inwardly rectifying potassium channel KCNH2, sequence (Q12809 whole entry): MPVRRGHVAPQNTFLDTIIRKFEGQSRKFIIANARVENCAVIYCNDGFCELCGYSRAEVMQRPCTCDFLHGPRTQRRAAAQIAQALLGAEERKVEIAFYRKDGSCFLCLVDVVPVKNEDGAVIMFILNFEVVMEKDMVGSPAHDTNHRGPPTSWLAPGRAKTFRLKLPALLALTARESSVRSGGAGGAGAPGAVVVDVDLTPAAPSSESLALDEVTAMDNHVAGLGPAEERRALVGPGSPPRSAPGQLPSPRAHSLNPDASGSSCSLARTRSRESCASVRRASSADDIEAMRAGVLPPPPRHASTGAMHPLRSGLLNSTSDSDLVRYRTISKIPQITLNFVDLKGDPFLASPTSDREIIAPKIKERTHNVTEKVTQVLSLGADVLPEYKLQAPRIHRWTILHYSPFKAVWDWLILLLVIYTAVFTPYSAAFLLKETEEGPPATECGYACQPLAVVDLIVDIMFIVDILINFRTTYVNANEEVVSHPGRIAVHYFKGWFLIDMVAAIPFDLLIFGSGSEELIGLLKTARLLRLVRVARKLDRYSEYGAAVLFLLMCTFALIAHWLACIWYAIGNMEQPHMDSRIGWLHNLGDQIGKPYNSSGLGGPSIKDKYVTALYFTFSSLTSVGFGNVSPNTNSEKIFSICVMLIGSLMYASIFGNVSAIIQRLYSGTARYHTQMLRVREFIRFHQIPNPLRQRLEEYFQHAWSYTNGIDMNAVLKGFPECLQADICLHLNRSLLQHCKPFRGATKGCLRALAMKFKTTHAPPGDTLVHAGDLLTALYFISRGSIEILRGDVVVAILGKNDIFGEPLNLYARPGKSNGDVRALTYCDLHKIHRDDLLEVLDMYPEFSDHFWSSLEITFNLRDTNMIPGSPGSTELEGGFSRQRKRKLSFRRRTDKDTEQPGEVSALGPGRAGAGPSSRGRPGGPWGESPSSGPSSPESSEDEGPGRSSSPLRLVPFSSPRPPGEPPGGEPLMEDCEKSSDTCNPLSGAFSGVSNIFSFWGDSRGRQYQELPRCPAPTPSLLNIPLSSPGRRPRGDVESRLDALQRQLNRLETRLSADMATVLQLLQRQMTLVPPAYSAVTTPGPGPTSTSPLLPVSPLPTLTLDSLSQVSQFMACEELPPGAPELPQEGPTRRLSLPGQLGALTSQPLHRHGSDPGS
Cathepsin D (Homo sapiens), sequence (P07339 65-162 limits assumed): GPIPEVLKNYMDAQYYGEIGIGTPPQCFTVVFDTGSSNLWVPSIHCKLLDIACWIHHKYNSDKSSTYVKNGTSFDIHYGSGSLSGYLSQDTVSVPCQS
Cathepsin D (Homo sapiens), sequence (P07339 169-412 limits assumed): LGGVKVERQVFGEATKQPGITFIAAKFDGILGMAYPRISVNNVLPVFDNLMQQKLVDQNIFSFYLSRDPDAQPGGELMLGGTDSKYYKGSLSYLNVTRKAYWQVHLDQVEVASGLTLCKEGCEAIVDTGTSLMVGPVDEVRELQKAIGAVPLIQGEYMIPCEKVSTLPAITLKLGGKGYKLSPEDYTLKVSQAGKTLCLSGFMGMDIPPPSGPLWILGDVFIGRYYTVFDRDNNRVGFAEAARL

What is called IC50 is the midpoint of a concentration-inhibition curve. The term Ki denotes the dissociation constant of the complex between target and ligand, obtained from inhibition or displacement. Higher therefore signals weaker binding. In the case of `COc1ccc(-c2nsc(C)c2C(=O)/N=C(/N)NCc2cc(Cl)c(N)c(Cl)c2)cc1`, the IC50 stood at 1.7 µM at Beta-secretase 1 [1], 0.63 µM at Beta-secretase 1 [3] and 1.03 µM on Beta-secretase 1 [4]. Further, at Beta-secretase 1 [2], the Ki worked out at 0.04 µM.

On to `COc1ccc(-c2nsc(C)c2C(=O)/N=C(\N)NCc2cc(Cl)c(N)c(Cl)c2)cc1`, for which the Ratio IC50 on Beta-secretase 1 [5] is 1.7.

On to `COc1ccc(-c2nsc(C)c2C(=O)/N=C(\N)NCc2cc(C)c(NC(=O)CN3CCC3)c(Cl)c2)cc1`, for which the Activity was 89% with Rattus norvegicus [6]; “Dose-dependent effect” in the data set on Rattus norvegicus [10]; “Not Active” in data set [13]; 4% in the data set on Rattus norvegicus [14]; 8% in the data set with Rattus norvegicus [15]; 98% with Rattus norvegicus [19]. Besides, the Activity in the data set with Rattus norvegicus [21] is 105%; in the data set on Rattus norvegicus [22], 102%; in the data set with Rattus norvegicus [23] it was 18%; with Rattus norvegicus [24] it was 94%; with Rattus norvegicus [28] it was 82%. Further, the IC50 came to 0.18 µM at Beta-secretase 1 [1], 0.005 µM on Beta-secretase 1 [3] and 0.005 µM on Beta-secretase 1 [4]. Also, the concentration at 5 h in [7] turned out to be 378 nM; in data set [8], 6640 nM; in [9] it was 586 nM; in data set [12], 89 nM; in data set [16], 320 nM; in data set [25], 8 nM. Further, the concentration at 5 h in data set [26] was 39 nM; in data set [27] it was 1170 nM; in [29], 4 nM. Also, the inhibition result in data set [11], in data set [17] and in data set [20] was “inactive” in each case. Further, on Beta-secretase 1 [5], the Ratio IC50 is 36. Moreover, the Ratio on Beta-secretase 1 [18] amounted to 1. Moreover, on Beta-secretase 1 [2], the affinity corresponds to a Ki of 0.005 µM.

In the case of `COc1ccc(-c2nsc(C)c2C(=O)/N=C(\N)NCc2cc(Cl)c(NC(C)=O)c(Cl)c2)cc1`, the IC50 on Beta-secretase 1 [1] is more than 10 µM; on Beta-secretase 1 [3], 0.31 µM; at Beta-secretase 1 [4] it was 0.31 µM. Further, at Beta-secretase 1 [5], the Ratio IC50 was more than 32. On Beta-secretase 1 [18], the Ratio was found to be 62. Further, the Ki at Beta-secretase 1 [2] turned out to be 0.005 µM.

On to `COc1ccc(-c2noc(C)c2C(=O)/N=C(\N)NCc2cc(Cl)cc(Cl)c2)cc1`, for which the IC50 at Beta-secretase 1 [1] came to 3.3 µM; on Beta-secretase 1 [3], 1.6 µM; at Beta-secretase 1 [4], 3.9 µM. In addition, the Ratio IC50 at Beta-secretase 1 [5] turned out to be 0.8. The same compound yielded a Ki on Beta-secretase 1 [2] of 0.67 µM.

As for `COc1ccc(-c2noc(C)c2C(=O)/N=C(\N)NCc2cc(Cl)c(NC(=O)CN(C)C)c(Cl)c2)cc1`, the Ratio at Beta-secretase 1 [18] turned out to be 4. This compound also yielded a Ki at Beta-secretase 1 [2] of 0.05 µM. In addition, at Beta-secretase 1 [3], the IC50 was found to be 0.21 µM.

Regarding `COc1ccc(-c2nsc(C)c2C(=O)/N=C(\N)NCc2cc(Cl)c(NC(=O)CN3CCC3)c(Cl)c2)cc1`, the Ratio IC50 at Beta-secretase 1 [5] turned out to be 23. In addition, the Ratio on Beta-secretase 1 [18] was 2.

In the case of `COc1ccc(-c2nsc(C)c2C(=O)NC(N)=NCc2cc(Cl)c(NC(=O)CN3CCC3)c(Cl)c2)cc1`, the IC50 at Beta-secretase 1 [1] is 0.18 µM; at Beta-secretase 1 [3], 0.008 µM; at Beta-secretase 1 [4], 0.008 µM. The compound further returned a Ki at Beta-secretase 1 [2] of 0.004 µM.

As to `CCNCC(=O)Nc1c(C)cc(CN/C(N)=N/C(=O)c2c(-c3ccc(OC)cc3)nsc2C)cc1Cl`, at Beta-secretase 1 [18], the Ratio came out at 0.5. Moreover, affinity on Beta-secretase 1 [2] was put at a Ki of 0.02 µM. Moreover, the half-maximal inhibitory concentration (IC50) at Beta-secretase 1 [3] came to 0.01 µM.

Take `COc1ccc(-c2nsc(C)c2C(=O)/N=C(\N)NCc2cc(Cl)c(NC(=O)CN(C)C)c(Cl)c2)cc1`: the Ratio on Beta-secretase 1 [18] is 4. At Beta-secretase 1 [2], this compound yielded a Ki of 0.02 µM. The IC50 on Beta-secretase 1 [3] is 0.07 µM.

Values taken from ChEMBL document CHEMBL2177026, “Acyl guanidine inhibitors of β-secretase (BACE-1): optimization of a micromolar hit to a nanomolar lead via iterative solid- and solution-phase library synthesis” (J Med Chem, 2012).
